Assays:
H1 receptor = conditions: read-out: Ki H1 receptor (ChEMBLdb); known activity in ChEMBLdb ref 28; cited from earlier work
hH1R = hH1R (Homo sapiens, UniProt P35367); assay: Inositol phosphate; format: cell-based; conditions: for functional character in histamine stimulated InsP accumulation assays: HEK293T cells transiently transfected with hH1R
human H1R = human H1R (Homo sapiens, UniProt P35367); assay: Radioligand displacement assay, [3H]-mepyramine binding; conditions: displacement of [3H]-mepyramine, membranes of HEK293T cells transiently expressing human H1R; mean ± SEM, at least three independent measurements
Human H3R = Human H3R (Homo sapiens, UniProt Q9Y5N1); assay: Radioligand displacement assay, [3H]-N-α-methylhistamine binding
Chain of Human H3R (Q9Y5N1 whole entry): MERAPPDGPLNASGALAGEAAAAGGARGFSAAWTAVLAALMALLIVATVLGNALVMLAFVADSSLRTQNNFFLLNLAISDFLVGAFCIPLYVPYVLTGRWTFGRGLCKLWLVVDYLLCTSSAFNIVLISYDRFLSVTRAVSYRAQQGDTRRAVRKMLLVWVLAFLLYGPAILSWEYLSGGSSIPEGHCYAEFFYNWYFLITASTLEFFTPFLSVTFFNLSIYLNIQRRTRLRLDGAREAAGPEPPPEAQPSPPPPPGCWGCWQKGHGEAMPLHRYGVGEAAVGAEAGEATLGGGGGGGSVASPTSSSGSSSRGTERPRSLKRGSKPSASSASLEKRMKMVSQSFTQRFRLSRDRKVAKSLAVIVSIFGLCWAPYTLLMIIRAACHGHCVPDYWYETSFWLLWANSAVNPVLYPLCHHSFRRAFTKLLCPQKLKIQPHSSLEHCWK

Chain of hH1R (P35367 whole entry): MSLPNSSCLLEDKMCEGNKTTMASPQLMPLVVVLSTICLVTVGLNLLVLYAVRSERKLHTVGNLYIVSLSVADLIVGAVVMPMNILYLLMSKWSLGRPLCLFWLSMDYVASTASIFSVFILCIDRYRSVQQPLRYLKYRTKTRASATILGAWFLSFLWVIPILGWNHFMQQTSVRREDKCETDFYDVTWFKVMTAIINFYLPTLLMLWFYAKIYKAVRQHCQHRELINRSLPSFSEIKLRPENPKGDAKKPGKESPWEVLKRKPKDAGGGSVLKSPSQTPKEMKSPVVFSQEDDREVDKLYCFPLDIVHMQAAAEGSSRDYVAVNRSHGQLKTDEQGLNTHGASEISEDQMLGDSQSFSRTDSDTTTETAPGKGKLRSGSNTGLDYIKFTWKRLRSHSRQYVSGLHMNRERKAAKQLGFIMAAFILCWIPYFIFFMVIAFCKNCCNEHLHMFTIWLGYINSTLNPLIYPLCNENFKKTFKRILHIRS
Chain of human H1R (P35367 whole entry): as above

For NC1=NCC2c3ccccc3Cc3ccccc3N12 (stereo not drawn) [Epinastine], the Ki (H1 receptor) is given as ≤ 10 µM.

In the case of CN(C)CCCN1c2ccccc2CCc2ccccc21 [Imipramine], the Ki (H1 receptor) is given as ≤ 10 µM.

For Cc1ccc(/C(=C\CN2CCCC2)c2ccccn2)cc1 [Triprolidine], the Ki (H1 receptor) is listed as ≤ 10 µM.

In the case of c1ccc(Cc2ccccc2OC2CCNCC2)cc1 [compound 3], the “inhibition of histamine-induced effects” value (hH1R; tested against histamine (0.1 μM), InsP accumulation) is reported as “completely inhibit”.

For CN1CCN(c2nc(N3CCCC3)c3cnn(C)c3n2)CC1 [compound 4], the “pKi H1R” value (human H1R) was 7.21 ± 0.03.

For CNCCCOc1cccc2ccccc12 [compound 9], the “functional character in histamine stimulated InsP accumulation assays” value (shortened to “functional character”) (hH1R) was “very weak partial agonist” and the intrinsic activity (hH1R; InsP accumulation, HEK293T hH1R) was 0.07.

For c1cnc2c(c1)cc([C@@H]1CCCO1)n2CCN1CCCCC1 [compound 10], the “functional character” value (hH1R) was “inverse agonists” and the H3R affinity (Human H3R) was “without H3R affinity”.

With c1ccc2c(c1)nc1n(CCN3CCCCC3)cnn21 [compound 13] the “functional character” value (hH1R) was “inverse agonists”.

For c1ccc2c(c1)n(CCN1CCCCC1)c1ncnn21 [compound 15], the “functional character” value (hH1R) was “inverse agonists” and the H3R affinity (Human H3R) was “without H3R affinity”.

From paper PMC3228891 (Journal of medicinal chemistry, 2011)
